In patent US20150105252A1, “SUBSTITUTED PYRAZOLES AS HERBICIDES” (E I DU PONT DE NEMOURS AND COMPANY, priority 2013, published 2015):

Key:
oat, wild = assay: Test C preemergence; type: in vivo, Avena fatua; settings: for Plant response rating (scale of 0 to 100), Oat, Wild: Preemergence, 250 g ai/ha; for Oat, Wild plant response rating / Plant response rating, Oat, Wild: preemergence; for Plant response rating, Oat, Wild: 62 g ai/ha, scale 0 to 100, 0 = no effect, 100 = complete control
From the text: (§1) Seeds of plant species selected from blackgrass (Alopecurus myosuroides), ryegrass, Italian (Italian ryegrass, Lolium multiflorum), wheat (winter wheat, Triticum aestivum), galium (catchweed bedstraw, Galium aparine), corn (Zea mays), crabgrass, large (large crabgrass, Digitaria sanguinalis), foxtail, giant (giant foxtail, Setaria faberii), johnsongrass (Sorghum halepense), lambsquarters (Chenopodium album), morningglory (Ipomoea coccinea), nutsedge, yellow (yellow nutsedge, Cyperus esculentus), pigweed (redroot pigweed, Amaranthus retroflexus), ragweed (common ragweed, Ambrosia elation), soybean (Glycine max), barnyardgrass (Echinochloa crus-galli), oilseed rape (Brassica napus), waterhemp (common waterhemp, Amaranthus rudis), oat, wild (wild oat, Avena fatua), kochia (Kochia scoparia), Surinam grass (Brachiaria decumbens), foxtail, green (green foxtail, Setaria viridis), goosegrass (Eleusine indica), bromegrass, downy (downy bromegrass, Bromus tectorum), nightshade (eastern black nightshade, Solanum ptycanthum), cocklebur (common cocklebur, Xanthium strumarium), cupgrass, woolly (woolly cupgrass, Eriochloa villosa), bermudagrass (Cynodon dactylon), sunflower, (common oilseed sunflower, Helianthus annuus), Russian thistle (Salsola kali), and velvetleaf (Abutilon theophrasti) were planted into a blend of loam soil and sand and treated preemergence with test chemicals formulated in a non-phytotoxic solvent mixture which included a surfactant.
(§2) At the same time, plants selected from these crop and weed species and also chickweed (common chickweed, Stellaria media), canarygrass (littleseed canarygrass, Phalaris minor), and deadnettle (henbit deadnettle, Lamium amplexicaule), were planted in pots containing Redi-Earth® planting medium (Scotts Company, 14111 Scottslawn Road, Marysville, Ohio 43041) comprising spaghnum peat moss, vermiculite, wetting agent and starter nutrients and treated with postemergence applications of test chemicals formulated in the same manner. Plants ranged in height from 2 to 18 cm (1- to 4-leaf stage) for postemergence treatments. Treated plants and controls were maintained in a greenhouse for 13 to 15 days, after which time all species were compared to controls and visually evaluated. Plant response ratings, summarized in Table C, are based on a scale of 0 to 100 where 0 is no effect and 100 is complete control. A dash (-) response means no test result.

cocklebur = assay: Test C preemergence; type: in vivo, Xanthium strumarium; settings: for Plant response rating (scale of 0 to 100), Cocklebur: Preemergence, 250 g ai/ha; for Cocklebur plant response rating / Plant response rating, Cocklebur: preemergence; for Plant response rating, Cocklebur: 62 g ai/ha, scale 0 to 100, 0 = no effect, 100 = complete control
From the text: as §1, §2

Surinam grass = assay: Test C postemergence; type: in vivo, Brachiaria decumbens; settings: for Surinam Grass plant response rating: 62 g ai/ha, scale 0 to 100
From the text: as §1, §2

goosegrass = assay: Test C postemergence; type: in vivo, Eleusine indica; settings: for Goosegrass plant response rating: scale 0 to 100
From the text: as §1, §2

corn = assay: Test F preemergence; type: in vivo, Zea mays
From the text: (§3) Seeds of plant species selected from corn (Zea mays), soybean (Glycine max), velvetleaf (Abutilon theophrasti), lambsquarters (Chenopodium album), wild poinsettia (Euphorbia heterophylla), pigweed, palmer (palmer pigweed, Amaranthus palmeri), common waterhemp (Amaranthus rudis), surinam grass (Brachiaria decumbens), large crabgrass (Digitaria sanguinalis), crabgrass, Brazil (Brazilian crabgrass, Digitaria horizontalis), fall panicum (Panicum dichotomiflorum), giant foxtail (Setaria faberii), green foxtail (Setaria viridis), goosegrass (Eleusine indica), johnsongrass (Sorghum halepense), common ragweed (Ambrosia elation), barnyardgrass (Echinochloa crus-galli), southern sandbur (Cenchrus echinatus), arrowleaf sida (Sida rhombifolia), Italian ryegrass (Lolium multiflorum), dayflower, VA (Virginia (VA) dayflower, Commelina virginica), field bindweed (Convolvulus arvensis), cocklebur (common cocklebur, Xanthium strumarium), morningglory (Ipomoea coccinea), nightshade (eastern black nightshade, Solanum ptycanthum), kochia (Kochia scoparia), yellow nutsedge (Cyperus esculentus), and hairy beggarticks (Bidens pilosa), were planted into a silt loam soil and treated preemergence with test chemicals formulated in a non-phytotoxic solvent mixture which included a surfactant.
(§4) At the same time, plants from these crop and weed species and also horseweed (Canada horseweed, Conyza canadensis), smartweed (ladysthumb smartweed, Polygonum persicaria), waterhemp_RES1, (ALS & Triazine resistant common waterhemp, Amaranthus rudis), and waterhemp_RES2, (ALS & HPPD resistant common waterhemp, Amaranthus rudis) were treated with postemergence applications of test chemicals formulated in the same manner. Plants ranged in height from 2 to 18 cm for postemergence treatments (1- to 4-leaf stage). Treated plants and controls were maintained in a greenhouse for 14 to 21 days, after which time all species were compared to controls and visually evaluated. Plant response ratings, summarized in Table F, are based on a scale of 0 to 100 where 0 is no effect and 100 is complete control. A dash (-) response means no test result.

lambsquarters = assay: Test F preemergence; type: in vivo, Chenopodium album
From the text: as §3, §4

wild poinsettia = assay: Test F preemergence; type: in vivo, Euphorbia heterophylla
From the text: as §3, §4

johnsongrass = assay: Test F preemergence; type: in vivo, Sorghum halepense
From the text: as §3, §4

southern sandbur = assay: Test F preemergence; type: in vivo, Cenchrus echinatus
From the text: as §3, §4

morningglory = assay: Test F preemergence; type: in vivo, Ipomoea coccinea
From the text: as §3, §4

[1] = 31 g ai/ha, scale 0 to 100 (0 no effect, 100 complete control), 13 to 15 days
[2] = 125 g ai/ha, scale 0 to 100, 0 is no effect, 100 is complete control
[3] = 125 g ai/ha, scale 0 to 100, 0 no effect, 100 complete control
[4] = 250 g ai/ha, scale 0 to 100 (0 no effect, 100 complete control)
[5] = postemergence, 250 g ai/ha, scale 0 to 100 (0 no effect, 100 complete control)
[6] = postemergence, 125 g ai/ha, scale 0 to 100, 0 no effect, 100 complete control
[7] = postemergence, 62 g ai/ha, scale 0 to 100, 0 no effect, 100 complete control
[8] = Preemergence, 62 g ai/ha, scale 0 to 100
[9] = Preemergence, 125 g ai/ha, scale 0 to 100
[10] = Preemergence, 250 g ai/ha, scale 0 to 100
[11] = preemergence, 16 g ai/ha, scale 0 to 100, 100 is complete control

SMILES: CCONC(=O)c1cc(CC)n(Cc2cccc(OC(F)(F)F)c2)n1 [Compound 72]
- Plant response rating (scale of 0 to 100), Oat, Wild (oat, wild): 85
- Oat, Wild plant response rating (oat, wild; [1]): 30
- Plant response rating, Oat, Wild (oat, wild; 13 to 15 days): 60
- Oat, Wild plant response rating (oat, wild; [2]): 80
- Plant response rating (scale of 0 to 100), Cocklebur (cocklebur): 100
- Cocklebur plant response rating (cocklebur; [1]): 0
- Plant response rating, Cocklebur (cocklebur; 13 to 15 days): 0
- Cocklebur plant response rating (cocklebur; [2]): 10
- Surinam Grass plant response rating (Surinam grass): 10
- Plant response rating, Surinam Grass (Surinam grass; [3]): 10
- Plant response rating, Surinam Grass (Surinam grass; [4]): 15
- Goosegrass plant response rating (goosegrass; Postemergence, 31 g ai/ha): 0
- Goosegrass plant response rating (goosegrass; postemergence, 62 g ai/ha): 0
- Plant response rating, Goosegrass (goosegrass; [5]): 5
- Plant response rating, Goosegrass (goosegrass; [6]): 0

SMILES: Cc1cc(C(=O)NCC(F)(F)F)nn1Cc1ccnc(C(F)(F)F)c1 [Compound 74]
- Plant response rating (scale of 0 to 100), Oat, Wild (oat, wild): 95
- Oat, Wild plant response rating (oat, wild; [1]): 0
- Plant response rating, Oat, Wild (oat, wild; 13 to 15 days): 40
- Oat, Wild plant response rating (oat, wild; [2]): 85
- Plant response rating (scale of 0 to 100), Cocklebur (cocklebur): 100
- Cocklebur plant response rating (cocklebur; [1]): 100
- Plant response rating, Cocklebur (cocklebur; 13 to 15 days): 100
- Cocklebur plant response rating (cocklebur; [2]): 100
- Surinam Grass plant response rating (Surinam grass): 10
- Plant response rating, Surinam Grass (Surinam grass; [3]): 15
- Plant response rating, Surinam Grass (Surinam grass; [4]): 25
- Goosegrass plant response rating (goosegrass; Postemergence, 31 g ai/ha): 5
- Goosegrass plant response rating (goosegrass; postemergence, 62 g ai/ha): 5
- Plant response rating, Goosegrass (goosegrass; [5]): 10
- Plant response rating, Goosegrass (goosegrass; [6]): 5

SMILES: CCCNC(=O)c1cc(CC)n(Cc2cccc(OC(F)(F)F)c2)n1 [Compound 27]
- Surinam Grass plant response rating (Surinam grass): 5
- Plant response rating, Surinam Grass (Surinam grass; [3]): 10
- Plant response rating, Surinam Grass (Surinam grass; [4]): 10
- Goosegrass plant response rating (goosegrass; Postemergence, 31 g ai/ha): 0
- Plant response rating, Goosegrass (goosegrass; [5]): 10
- Plant response rating, Goosegrass (goosegrass; [7]): 0
- Plant response rating, Goosegrass (goosegrass; [6]): 0

SMILES: CCCc1cc(C(=O)NC(C)C)nn1Cc1cc(C(F)(F)F)nn1C [Compound 201]
- Plant response rating, Corn (corn; [8]): 10
- Plant response rating, Corn (corn; [9]): 20
- Plant response rating, Corn (corn; [10]): 60
- Plant response rating, Corn (corn; [11]): 0
- Plant response rating, Lambsquarters (lambsquarters; [8]): 70
- Plant response rating, Lambsquarters (lambsquarters; [9]): 100
- Plant response rating, Lambsquarters (lambsquarters; [10]): 100
- Plant response rating, Lambsquarters (lambsquarters; [11]): 0
- Plant response rating, Wild Poinsettia (wild poinsettia; [8]): 5
- Plant response rating, Wild Poinsettia (wild poinsettia; [9]): 25
- Plant response rating, Wild Poinsettia (wild poinsettia; [10]): 65
- Plant response rating, Wild Poinsettia (wild poinsettia; [11]): 0
- Plant response rating, Johnsongrass (johnsongrass; [8]): 25
- Plant response rating, Johnsongrass (johnsongrass; [9]): 80
- Plant response rating, Johnsongrass (johnsongrass; [10]): 95
- Plant response rating, Johnsongrass (johnsongrass; [11]): 0
- Plant response rating, Southern Sandbur (southern sandbur; [8]): 0
- Plant response rating, Southern Sandbur (southern sandbur; [9]): 30
- Plant response rating, Southern Sandbur (southern sandbur; [10]): 75
- Plant response rating, Southern Sandbur (southern sandbur; [11]): 0
- Plant response rating, Morningglory (morningglory; Preemergence, 16 g ai/ha, scale 0 to 100): 0
- Plant response rating, Morningglory (morningglory; [8]): 25
- Plant response rating, Morningglory (morningglory; [9]): 65
- Plant response rating, Morningglory (morningglory; [10]): 80
- Plant response rating, Morningglory (morningglory; [11]): 0

SMILES: CCc1cc(C(=O)NCC(F)(F)F)nn1Cc1cccc(OC(F)(F)F)c1 [Compound 20]
- Surinam Grass plant response rating (Surinam grass): 5
- Plant response rating, Surinam Grass (Surinam grass; [3]): 10
- Plant response rating, Surinam Grass (Surinam grass; [4]): 10
- Goosegrass plant response rating (goosegrass; Postemergence, 31 g ai/ha): 0
- Plant response rating, Goosegrass (goosegrass; [5]): 15
- Plant response rating, Goosegrass (goosegrass; [7]): 5
- Plant response rating, Goosegrass (goosegrass; [6]): 5

SMILES: CCc1cc(C(=O)NOC(C)C)nn1Cc1cccc(OC(F)(F)F)c1 [Compound 70]
- Plant response rating (scale of 0 to 100), Oat, Wild (oat, wild): 65
- Oat, Wild plant response rating (oat, wild; [1]): 5
- Plant response rating, Oat, Wild (oat, wild; 13 to 15 days): 10
- Oat, Wild plant response rating (oat, wild; [2]): 50
- Plant response rating (scale of 0 to 100), Cocklebur (cocklebur): 100
- Cocklebur plant response rating (cocklebur; [1]): 0
- Plant response rating, Cocklebur (cocklebur; 13 to 15 days): 0
- Cocklebur plant response rating (cocklebur; [2]): 45
- Surinam Grass plant response rating (Surinam grass): 10
- Plant response rating, Surinam Grass (Surinam grass; [3]): 20
- Plant response rating, Surinam Grass (Surinam grass; [4]): 30
- Goosegrass plant response rating (goosegrass; Postemergence, 31 g ai/ha): 5
- Plant response rating, Goosegrass (goosegrass; [5]): 15
- Plant response rating, Goosegrass (goosegrass; [7]): 5
- Plant response rating, Goosegrass (goosegrass; [6]): 10
